Laboratory results: patent US20250388602A1 (Genase Therapeutics B.V., priority 2022, published 2025)

Columns and labels:
CYP1A2 = CYP1A2 (Homo sapiens (Human), UniProt P05177); assay: CYP inhibition in pooled human liver microsomes; format: in vitro ADME
Procedure: (§1) CYP inhibition: Co-incubation of compounds with P450 enzyme-selective substrates was performed using pooled human liver microsomes (Cat. No. H0610, Xenotech), to determine their potential to cause drug-drug interactions. The assay was performed in duplicate. The formation of acetaminophen, 7′-hydoxycoumarin, hydrobupropion, N-desethylamodiaquine, 4′-hydroxydiclofenac, 4′-hydroxymephenytoin, 1′-hydroxybufuralol, 6″-hydroxychlorzoxazone were quantified as markers for CYP1A2, CYP2A6, […], CYP2C8, CYP2C9, CYP2C19, […], CYP2E1, respectively. CYP3A4 inhibition was measured using 2 substrates, measuring the formation of […] (3A4-T), and 1′-hydroxymidazolam (3A4-M). The incubation was carried out in 96 deep well plates each well containing: 179 μL of the master solution (0.2 mg/mL microsomes plus CYP substrate (see below for final substrate concentration and incubation time for the different CYP assays)) in 100 mM phosphate buffer and 1 μL of the compound working solution or vehicle. The final concentrations of the compounds in the assay was 30 μM when using a single dose or 0.1, 0.3, 1, 3, 10 and 30 μM for a dose response.
(§2) The incubation plate was placed into a water bath and pre-warmed at 37° C. for 5 minutes before the reactions were started by the addition of 20 μL of 10 mM NADPH solution and incubated at 37° C. for the time listed above. […]

Human CYPs = assay: CYP inhibition panel in pooled human liver microsomes, overall statement; format: in vitro ADME; conditions: compared to C-analogue
Procedure: as §1, §2

recombinant human DHODH = recombinant human DHODH (Homo sapiens (Human), UniProt Q02127); assay: DHODH enzyme assay (Assay A), DCIP absorbance; format: biochemical; conditions: bins ≥10 nM-<100 nM and <10 nM; read-out: IC50 DHODH inhibition activity
DENV-2 = assay: anti-DENV-2 CPE reduction assay in A549 cells (MTS); format: cell-based, DENV-2 laboratory-adapted New Guinea C strain
Procedure: The lung cancer epithelial cell line A549 was obtained from the American Type Culture Collection (ATCC; Rockville, MD, USA) and cultured in MEM medium (Gibco BRL, Gaithersburg, MD, USA) with 10% fetal calf serum (FCS; Gibco BRL), 2 mM L-glutamine (Gibco BRL) and 0.075% sodium bicarbonate (Gibco BRL).
The ZIKV MR766 prototype strain and the DENV-2 laboratory-adapted New Guinea C strain were obtained from ATCC and stocks were grown in the C6/36 mosquito cell line (ATCC). Viral stock titers were determined using plaque assay in BHK-21 cells (ATCC).
The anti-ZIKV and anti-DENV-2 activity in A549 cells was determined using a tetrazolium-based colorimetric cytopathic effect (CPE) reduction assay. This assay has been described in detail before (Virology. 2021; doi.org/10.1016/j.virol.2021.07.003). […] Three hours after MTS incubation, virus was inactivated using 0.5% Triton X-100 (Thermo Fisher Scientific, Waltham, MA, USA) and the absorbance was then recorded at 490 nm with a 96-well plate reader and compared with four cell control replicates (cells without virus and drugs) and four virus control wells (cells with virus but without drug). […] Absorbance was recorded using the VersaMax ELISA™ microplate reader (Molecular Devices) and analyzed with the Softmax Pro® software (Molecular Devices, Version 4.0). […]

CYP1A2, sequence (P05177 whole entry): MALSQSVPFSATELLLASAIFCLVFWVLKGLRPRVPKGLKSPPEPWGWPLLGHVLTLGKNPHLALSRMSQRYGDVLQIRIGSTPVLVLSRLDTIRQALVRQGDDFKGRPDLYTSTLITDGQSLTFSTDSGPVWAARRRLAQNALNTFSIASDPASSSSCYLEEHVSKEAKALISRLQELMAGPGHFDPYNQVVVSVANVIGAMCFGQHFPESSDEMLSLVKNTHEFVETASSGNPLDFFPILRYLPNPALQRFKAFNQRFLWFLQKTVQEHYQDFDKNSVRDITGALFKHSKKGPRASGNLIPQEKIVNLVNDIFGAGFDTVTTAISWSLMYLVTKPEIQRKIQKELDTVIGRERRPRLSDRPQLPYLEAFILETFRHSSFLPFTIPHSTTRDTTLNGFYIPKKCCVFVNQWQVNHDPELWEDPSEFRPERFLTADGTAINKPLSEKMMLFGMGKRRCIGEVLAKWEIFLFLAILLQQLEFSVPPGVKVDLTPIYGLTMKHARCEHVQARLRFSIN
recombinant human DHODH, sequence (Q02127 whole entry): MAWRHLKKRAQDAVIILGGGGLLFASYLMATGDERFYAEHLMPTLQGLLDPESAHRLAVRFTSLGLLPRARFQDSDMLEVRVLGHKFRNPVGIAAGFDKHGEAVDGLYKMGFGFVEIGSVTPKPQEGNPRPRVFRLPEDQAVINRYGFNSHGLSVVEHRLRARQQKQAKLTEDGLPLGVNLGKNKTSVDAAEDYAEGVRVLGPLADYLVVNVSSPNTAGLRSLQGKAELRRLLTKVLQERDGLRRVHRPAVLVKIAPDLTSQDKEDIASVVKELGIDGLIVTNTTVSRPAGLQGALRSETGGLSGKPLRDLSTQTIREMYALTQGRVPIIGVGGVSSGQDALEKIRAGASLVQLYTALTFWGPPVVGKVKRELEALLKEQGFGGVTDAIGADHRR

With COc1ccc(F)c(-n2ncc3c2COC[C@H]3NC(=O)c2ncn3c2CCCC3)c1Cl (single isomer, unassigned) [Ex-9] the IC50 (CYP1A2) was greater than 30000 nM, the “inhibition of human CYPs” value (Human CYPs) was “No Inhibition” and the hHEPs % remaining (in vitro; % remaining at 120 min, 1 μM) was 87%. For the same molecule, the half-life at 1 μM (in vitro; human, hepatocytes) was greater than 10 h, the IC50 (recombinant human DHODH) was less than 10 nM and the “antiviral activity against DENV-2” value (DENV-2; A549 cells) was “demonstrating antiviral activity”. The IC50 (DENV-2; Dengue virus, DENV2, A549, 96 h, read-out: IC50 DENV-2 MTS) was 1.6 ± 1 nM.
